Test results from article PMC10702189, “Tetrazine Glycoconjugate for Pretargeted Positron Emission Tomography Imaging of trans-Cyclooctene-Functionalized Molecular Spherical Nucleic Acids” (ACS Omega, 2023).

Test: Stability in end product formulation by analytical radio-HPLC
Format: physicochemical
Details: for 6 h from EOS, end product formulation (PBS, ethanol ≤10%) at r.t.
Procedure: Chemical and radiochemical purity and stability of precursors and radiotracers were measured with analytical HPLC (Hitachi LaChrom Elite, Schaumburg, USA). Jupiter Proteo reversed-phase C18 column (4 μm, 250 mm × 4.6 mm) was used at a flow rate of 1 mL/min. HPLC eluents were A, 0.1% trifluoroacetic acid (TFA, v/v) in water; B, 0.1% TFA in acetonitrile. The gradient changed from 15% to 35% in 0–15 min. For radiolabeled MSNA quality control, SEC at a flow rate of 1 mL/min was used (Waters Protein-Pak 33SW (7.5 × 300 mm), eluent 0.1 M KH2PO4, pH 7.0).
The cyclotron produced [^18F]fluoride, dissolved in ^18O-enriched water (Rotem Industries Limited, Arava, Israel), was trapped in a Sep-Pak QMA Plus Light cartridge (Waters, preconditioned with 10 mL of 0.5 M K2CO3, 15 mL of water). [^18F]F^– was eluted from the cartridge with 2 mL of QMA-eluent solution (stock solution contains 237.5 mg of Kryptofix 2.2.2, 42.5 mg of potassium carbonate, 2 mL of Milli-Q water in 50 mL of acetonitrile). The reaction mixture was evaporated to dryness with Ar gas flow (70 mL/min for 10 min, and then 80 mL/min for 5–10 min more) under heating at 120 °C. […] The stability of [^18F]FDG-Tz was analyzed by analytical radio-HPLC up to 6 h after EOS in the end product formulation at r.t.

O=C(CCON=C[C@H]([18F])[C@@H](O)[C@H](O)[C@H](O)CO)NCc1ccc(-c2nncnn2)cc1 [[^18F]FDG-Tz]
Radiochemical purity retained (stability): > 98%
